According to the Kinase Knowledgebase extract (Sharma et al. 2016):

Experiments:
EGFR (human) [1] = biological target: EGFR (human) (UniProt P00533); conditions: a431
EGFR (murine) = EGFR (murine) (UniProt P00533); conditions: balb/mk cells
EGFR = EGFR (UniProt P00533)
EGFR (human) [2] = biological target: EGFR (human) (UniProt P00533); conditions: a431, concentration not given here

Sequence of EGFR (human) (P00533 whole entry, looked up): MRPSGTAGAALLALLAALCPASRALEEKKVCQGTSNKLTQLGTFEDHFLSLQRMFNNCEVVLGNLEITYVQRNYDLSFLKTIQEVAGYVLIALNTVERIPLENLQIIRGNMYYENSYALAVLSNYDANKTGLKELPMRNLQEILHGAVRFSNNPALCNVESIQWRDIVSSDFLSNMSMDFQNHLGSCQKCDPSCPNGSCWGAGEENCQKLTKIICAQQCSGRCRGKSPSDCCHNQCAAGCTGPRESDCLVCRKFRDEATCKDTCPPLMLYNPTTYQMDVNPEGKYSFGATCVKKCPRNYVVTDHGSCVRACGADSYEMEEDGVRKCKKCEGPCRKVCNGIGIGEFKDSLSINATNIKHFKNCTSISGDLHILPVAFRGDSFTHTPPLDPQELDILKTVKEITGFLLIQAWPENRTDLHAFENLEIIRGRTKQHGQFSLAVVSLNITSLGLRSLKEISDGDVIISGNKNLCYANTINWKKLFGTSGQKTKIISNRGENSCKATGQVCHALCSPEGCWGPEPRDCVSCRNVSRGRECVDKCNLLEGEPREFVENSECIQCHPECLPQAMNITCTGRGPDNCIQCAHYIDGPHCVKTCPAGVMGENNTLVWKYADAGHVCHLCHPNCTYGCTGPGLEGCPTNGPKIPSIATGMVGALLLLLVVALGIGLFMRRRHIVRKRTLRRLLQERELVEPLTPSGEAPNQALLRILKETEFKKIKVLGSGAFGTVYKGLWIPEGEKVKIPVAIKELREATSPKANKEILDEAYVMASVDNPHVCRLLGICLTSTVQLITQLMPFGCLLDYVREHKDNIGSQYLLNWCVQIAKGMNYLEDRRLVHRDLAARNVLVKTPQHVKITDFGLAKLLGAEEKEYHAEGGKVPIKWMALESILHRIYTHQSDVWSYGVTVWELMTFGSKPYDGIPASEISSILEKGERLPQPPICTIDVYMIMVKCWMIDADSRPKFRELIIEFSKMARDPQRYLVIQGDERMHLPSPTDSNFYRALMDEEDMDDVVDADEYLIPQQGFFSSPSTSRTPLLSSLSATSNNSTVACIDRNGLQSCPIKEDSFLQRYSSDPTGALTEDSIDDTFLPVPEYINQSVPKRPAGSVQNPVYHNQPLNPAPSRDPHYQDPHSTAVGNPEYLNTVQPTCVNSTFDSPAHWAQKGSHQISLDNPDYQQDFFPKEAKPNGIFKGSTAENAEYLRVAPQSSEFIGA
Sequence of EGFR (murine) (P00533 whole entry, looked up): as above
Sequence of EGFR (P00533 whole entry, looked up): as above

SMILES | IC50 (EGFR (human) [1]) [µM] | IC50 (EGFR (murine)) [µM] | other results
C=C(CN(C)C)C(=O)c1ccccc1 | > 100 | – | –
CN(C)CCC(=O)c1ccc(OCc2ccccc2)cc1 | > 100 | – | –
C=C(CN1CCN(C)CC1)C(=O)c1ccc(OCc2ccccc2)cc1 | > 100 | 0.95 | IC50 (EGFR): 1.5 µM
C=C(CN1CCCCC1)C(=O)c1ccc(OCc2ccccc2)cc1 | > 100 | – | –
O=C(CCN1CCOCC1)c1ccc(OCc2ccccc2)cc1 | > 100 | – | –
C=C(CN1CCOCC1)C(=O)c1ccc(OCc2ccccc2)cc1 | – | – | inhibition (EGFR (human) [2]): 100%
N#CC(C#N)=Cc1cc(O)c(O)c(O)c1 | – | 31.1 | IC50 (EGFR): 70 µM
CCOC(=O)C1CCN(CCC(=O)c2ccc(OCc3ccccc3)cc2)CC1 | > 100 | – | –
CN(C)CCCC(=O)c1ccc(OCc2ccccc2)cc1 | – | > 50 | –
C=C(CN(C)C)C(=O)c1ccc(OCc2ccccc2)c(O)c1 | > 100 | – | –
C=C(CN(C)C)C(=O)c1ccc(OS(=O)(=O)c2ccc(C(=O)O)cc2)cc1 | – | > 50 | –
CC(CN(C)C)C(=O)c1ccc(OS(=O)(=O)c2ccc(C(=O)O)cc2)cc1 (stereo not given) | – | > 50 | –
